Test results from patent US11767310B2, “Nicotinamide RIPK1 inhibitors” (AbbVie Inc., priority 2021, dated 2023).
Read-outs that look alike come from different tables or passages of the source.

Columns and labels:
Assay in all cases: Kinase binding screen
Settings in all cases: read-out: Percent Control at 100 nM Compound Concentration
[1] = biological target: ABL1(F317I)-phosphorylated (Homo sapiens (Human), UniProt P00519, F317I)
ALK = ALK (Homo sapiens (Human), UniProt Q9UM73)
AURKA = AURKA (Homo sapiens (Human), UniProt O14965)
AURKA, sequence (O14965 whole entry): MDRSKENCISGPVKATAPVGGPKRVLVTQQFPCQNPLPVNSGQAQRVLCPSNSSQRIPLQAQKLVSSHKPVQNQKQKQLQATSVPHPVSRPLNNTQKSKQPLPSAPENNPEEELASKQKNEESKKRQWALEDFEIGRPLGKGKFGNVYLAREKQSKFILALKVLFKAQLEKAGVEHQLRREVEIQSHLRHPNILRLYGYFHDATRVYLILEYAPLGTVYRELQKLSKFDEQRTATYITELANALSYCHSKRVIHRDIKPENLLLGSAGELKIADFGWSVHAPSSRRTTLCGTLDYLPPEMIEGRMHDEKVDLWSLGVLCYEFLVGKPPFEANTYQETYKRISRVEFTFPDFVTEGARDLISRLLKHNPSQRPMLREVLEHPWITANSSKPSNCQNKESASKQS

BLK = BLK (Homo sapiens (Human), UniProt P51451)
BRSK1 = BRSK1 (Homo sapiens (Human), UniProt Q8TDC3)
DRAK2 = DRAK2 (Homo sapiens (Human), UniProt O94768)
DYRK2 = DYRK2 (Homo sapiens (Human), UniProt Q92630)
EGFR(E746-A750del) = EGFR(E746-A750del) (Homo sapiens (Human), UniProt P00533, DEL746-750)
EPHA6 = EPHA6 (Homo sapiens (Human), UniProt Q9UF33)
FLT3 = FLT3 (Homo sapiens (Human), UniProt P36888)
GRK7 = GRK7 (Homo sapiens (Human), UniProt Q8WTQ7)
IRAK4 = IRAK4 (Homo sapiens (Human), UniProt Q9NWZ3)
MAP3K15 = MAP3K15 (Homo sapiens (Human), UniProt Q6ZN16)
MELK = MELK (Homo sapiens (Human), UniProt Q14680)
MELK, sequence (Q14680 whole entry): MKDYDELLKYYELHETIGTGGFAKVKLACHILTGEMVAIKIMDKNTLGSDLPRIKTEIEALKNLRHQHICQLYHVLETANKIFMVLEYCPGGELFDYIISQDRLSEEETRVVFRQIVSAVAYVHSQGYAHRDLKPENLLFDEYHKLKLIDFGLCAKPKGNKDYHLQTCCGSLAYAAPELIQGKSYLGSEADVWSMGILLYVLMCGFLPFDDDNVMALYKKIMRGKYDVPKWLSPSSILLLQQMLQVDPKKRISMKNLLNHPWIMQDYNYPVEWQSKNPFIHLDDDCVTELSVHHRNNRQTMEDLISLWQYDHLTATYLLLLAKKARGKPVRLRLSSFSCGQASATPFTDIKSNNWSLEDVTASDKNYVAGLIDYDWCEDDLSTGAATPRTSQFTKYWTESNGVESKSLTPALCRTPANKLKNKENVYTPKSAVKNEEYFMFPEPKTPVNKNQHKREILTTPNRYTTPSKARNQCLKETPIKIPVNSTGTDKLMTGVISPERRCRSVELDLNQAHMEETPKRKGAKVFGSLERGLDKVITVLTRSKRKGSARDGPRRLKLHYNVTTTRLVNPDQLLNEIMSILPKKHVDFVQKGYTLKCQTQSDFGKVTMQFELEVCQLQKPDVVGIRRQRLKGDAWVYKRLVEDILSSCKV

MERTK = MERTK (Homo sapiens (Human), UniProt Q12866)
MERTK, sequence (Q12866 21-999): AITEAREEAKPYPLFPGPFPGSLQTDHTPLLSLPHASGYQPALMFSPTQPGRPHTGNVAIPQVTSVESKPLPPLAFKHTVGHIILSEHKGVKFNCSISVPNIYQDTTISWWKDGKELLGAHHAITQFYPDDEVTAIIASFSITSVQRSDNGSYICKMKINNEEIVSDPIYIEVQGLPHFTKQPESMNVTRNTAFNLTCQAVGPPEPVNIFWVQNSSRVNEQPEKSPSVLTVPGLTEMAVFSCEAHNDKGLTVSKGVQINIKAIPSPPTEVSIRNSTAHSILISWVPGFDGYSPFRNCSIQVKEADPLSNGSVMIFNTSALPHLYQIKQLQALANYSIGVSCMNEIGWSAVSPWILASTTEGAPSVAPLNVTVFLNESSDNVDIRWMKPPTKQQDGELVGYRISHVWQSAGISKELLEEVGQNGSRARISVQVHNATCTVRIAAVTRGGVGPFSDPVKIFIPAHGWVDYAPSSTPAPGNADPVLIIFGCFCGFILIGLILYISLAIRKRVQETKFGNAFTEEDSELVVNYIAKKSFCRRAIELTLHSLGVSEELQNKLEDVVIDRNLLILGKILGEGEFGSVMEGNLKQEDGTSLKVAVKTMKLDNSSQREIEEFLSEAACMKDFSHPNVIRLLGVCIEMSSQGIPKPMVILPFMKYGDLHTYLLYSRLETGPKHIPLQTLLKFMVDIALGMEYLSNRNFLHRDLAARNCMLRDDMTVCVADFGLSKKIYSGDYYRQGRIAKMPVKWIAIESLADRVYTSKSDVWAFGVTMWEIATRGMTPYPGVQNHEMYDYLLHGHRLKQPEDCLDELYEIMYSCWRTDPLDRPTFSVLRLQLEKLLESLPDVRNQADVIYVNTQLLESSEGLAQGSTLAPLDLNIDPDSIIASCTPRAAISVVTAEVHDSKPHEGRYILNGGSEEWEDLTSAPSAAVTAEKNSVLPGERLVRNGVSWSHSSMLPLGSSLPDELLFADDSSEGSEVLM

MKK7 = MKK7 (Homo sapiens (Human), UniProt O14733)
MLCK = MLCK (Homo sapiens (Human), UniProt Q32MK0)
MLCK, sequence (Q32MK0 whole entry): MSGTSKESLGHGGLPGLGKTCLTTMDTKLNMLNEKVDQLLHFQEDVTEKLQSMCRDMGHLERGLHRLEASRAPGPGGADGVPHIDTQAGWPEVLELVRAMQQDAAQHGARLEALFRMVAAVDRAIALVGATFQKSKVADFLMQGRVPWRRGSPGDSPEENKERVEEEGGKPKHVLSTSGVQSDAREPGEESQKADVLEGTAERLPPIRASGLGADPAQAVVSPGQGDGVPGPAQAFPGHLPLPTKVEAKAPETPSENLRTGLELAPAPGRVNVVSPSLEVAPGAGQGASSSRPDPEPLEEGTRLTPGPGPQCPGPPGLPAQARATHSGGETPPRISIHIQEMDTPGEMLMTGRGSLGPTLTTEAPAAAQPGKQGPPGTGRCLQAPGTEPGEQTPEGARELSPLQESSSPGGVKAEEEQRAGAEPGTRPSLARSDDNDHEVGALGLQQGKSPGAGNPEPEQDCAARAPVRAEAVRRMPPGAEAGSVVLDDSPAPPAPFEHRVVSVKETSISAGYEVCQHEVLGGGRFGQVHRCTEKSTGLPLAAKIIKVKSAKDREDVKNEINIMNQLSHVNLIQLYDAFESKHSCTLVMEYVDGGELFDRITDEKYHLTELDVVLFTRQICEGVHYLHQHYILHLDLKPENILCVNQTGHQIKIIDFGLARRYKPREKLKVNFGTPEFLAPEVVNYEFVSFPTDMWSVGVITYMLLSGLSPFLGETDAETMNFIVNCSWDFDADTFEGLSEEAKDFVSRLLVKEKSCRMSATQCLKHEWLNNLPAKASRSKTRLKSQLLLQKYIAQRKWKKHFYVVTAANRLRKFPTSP

PAK2 = PAK2 (Homo sapiens (Human), UniProt Q13177)
PFTAIRE2 = PFTAIRE2 (Homo sapiens (Human), UniProt Q96Q40)
PRKCH = PRKCH (Homo sapiens (Human), UniProt P24723)
RIPK1 = RIPK1 (Homo sapiens (Human), UniProt Q13546)
RIPK1, sequence (Q13546 whole entry): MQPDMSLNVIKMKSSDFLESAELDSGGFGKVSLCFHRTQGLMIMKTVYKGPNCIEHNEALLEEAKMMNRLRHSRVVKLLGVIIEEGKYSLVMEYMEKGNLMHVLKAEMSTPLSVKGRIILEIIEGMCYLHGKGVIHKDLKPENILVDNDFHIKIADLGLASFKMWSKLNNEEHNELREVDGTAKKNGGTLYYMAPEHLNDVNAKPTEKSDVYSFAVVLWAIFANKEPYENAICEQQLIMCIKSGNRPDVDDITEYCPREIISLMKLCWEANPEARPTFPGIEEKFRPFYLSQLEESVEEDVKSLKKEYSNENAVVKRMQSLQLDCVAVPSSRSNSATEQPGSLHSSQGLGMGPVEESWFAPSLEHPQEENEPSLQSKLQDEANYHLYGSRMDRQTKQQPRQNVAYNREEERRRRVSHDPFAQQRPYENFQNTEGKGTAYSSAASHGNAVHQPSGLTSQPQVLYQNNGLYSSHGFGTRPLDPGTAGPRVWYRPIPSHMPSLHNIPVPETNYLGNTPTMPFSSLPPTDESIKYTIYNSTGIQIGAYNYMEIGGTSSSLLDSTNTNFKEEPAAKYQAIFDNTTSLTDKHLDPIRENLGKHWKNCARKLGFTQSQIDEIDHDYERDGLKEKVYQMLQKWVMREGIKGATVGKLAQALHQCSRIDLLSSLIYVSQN

[2] = biological target: RPS6KA4(Kin.Dom.1-N-terminal) (Homo sapiens (Human), UniProt O75676)
RPS6KA4(Kin.Dom.1-N-terminal), sequence (O75676 33-301): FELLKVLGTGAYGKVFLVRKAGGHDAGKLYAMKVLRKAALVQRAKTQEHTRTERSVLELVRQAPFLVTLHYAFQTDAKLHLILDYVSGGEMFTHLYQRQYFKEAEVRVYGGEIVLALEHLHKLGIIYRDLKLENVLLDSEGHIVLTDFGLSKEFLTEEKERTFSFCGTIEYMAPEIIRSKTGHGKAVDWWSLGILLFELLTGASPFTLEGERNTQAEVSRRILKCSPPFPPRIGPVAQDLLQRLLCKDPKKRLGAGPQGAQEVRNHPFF

SIK = SIK (Homo sapiens (Human), UniProt P57059)
STK16 = STK16 (Homo sapiens (Human), UniProt O75716)
TBK1 = TBK1 (Homo sapiens (Human), UniProt Q9UHD2)
TEC = TEC (Homo sapiens (Human), UniProt P42680)
TESK1 = TESK1 (Homo sapiens (Human), UniProt Q15569)
ULK2 = ULK2 (Homo sapiens (Human), UniProt Q8IYT8)
WNK3 = WNK3 (Homo sapiens (Human), UniProt Q9BYP7)

ABL1(F317I)-phosphorylated, sequence (P00519 whole entry F317I): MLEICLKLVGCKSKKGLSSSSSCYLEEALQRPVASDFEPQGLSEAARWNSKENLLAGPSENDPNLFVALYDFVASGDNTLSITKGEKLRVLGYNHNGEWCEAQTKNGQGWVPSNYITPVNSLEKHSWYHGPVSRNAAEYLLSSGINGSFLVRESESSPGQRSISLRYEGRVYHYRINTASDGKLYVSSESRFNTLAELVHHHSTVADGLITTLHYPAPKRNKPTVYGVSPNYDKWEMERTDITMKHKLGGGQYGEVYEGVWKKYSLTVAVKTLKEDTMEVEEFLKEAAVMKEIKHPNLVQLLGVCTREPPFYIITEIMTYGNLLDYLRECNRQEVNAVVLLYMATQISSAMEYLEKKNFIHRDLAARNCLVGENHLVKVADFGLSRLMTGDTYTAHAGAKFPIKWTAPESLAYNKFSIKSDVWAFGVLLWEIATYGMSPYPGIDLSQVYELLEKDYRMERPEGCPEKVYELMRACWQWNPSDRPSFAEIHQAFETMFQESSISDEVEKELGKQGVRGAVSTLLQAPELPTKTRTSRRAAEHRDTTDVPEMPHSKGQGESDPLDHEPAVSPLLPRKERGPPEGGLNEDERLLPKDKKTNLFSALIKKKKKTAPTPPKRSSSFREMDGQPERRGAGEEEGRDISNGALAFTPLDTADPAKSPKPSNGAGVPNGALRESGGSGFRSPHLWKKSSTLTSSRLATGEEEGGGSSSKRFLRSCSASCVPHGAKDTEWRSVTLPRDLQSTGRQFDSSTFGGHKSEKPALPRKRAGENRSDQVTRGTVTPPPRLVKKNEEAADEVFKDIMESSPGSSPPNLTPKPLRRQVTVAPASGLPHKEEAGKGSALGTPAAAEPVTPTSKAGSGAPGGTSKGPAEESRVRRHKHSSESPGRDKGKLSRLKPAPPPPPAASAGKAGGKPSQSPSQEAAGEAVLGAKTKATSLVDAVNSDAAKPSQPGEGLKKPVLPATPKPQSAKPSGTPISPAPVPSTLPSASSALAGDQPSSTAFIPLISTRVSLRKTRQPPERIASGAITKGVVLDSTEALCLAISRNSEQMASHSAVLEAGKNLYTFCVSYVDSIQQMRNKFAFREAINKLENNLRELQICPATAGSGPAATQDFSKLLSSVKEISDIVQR

CN(C[C@@H](O)Cc1ccccc1)C(=O)c1cncc(C#Cc2cnn(C(F)F)c2)c1 [Example 2, (S)-5-((1-(difluoromethyl)-1H-pyrazol-4-yl)ethynyl)-N-(2-hydroxy-3-phenylpropyl)-N-methylnicotinamide]
remaining activity at 0.1 µM ([1]; ABL1(F317I)-phosphorylated): 100% | remaining activity at 0.1 µM (ALK; ALK): 100% | remaining activity at 0.1 µM (AURKA; AURKA): 100% | remaining activity at 0.1 µM (BLK; BLK): 85% | remaining activity at 0.1 µM (BRSK1; BRSK1): 99% | remaining activity at 0.1 µM (DRAK2; DRAK2): 100% | remaining activity at 0.1 µM (DYRK2; DYRK2): 100% | remaining activity at 0.1 µM (EGFR(E746-A750del); EGFR(E746-A750del)): 100% | remaining activity at 0.1 µM (EPHA6; EPHA6): 100% | remaining activity at 0.1 µM (FLT3; FLT3): 100% | remaining activity at 0.1 µM (GRK7; GRK7): 100% | remaining activity at 0.1 µM (IRAK4; IRAK4): 91% | remaining activity at 0.1 µM (MAP3K15; MAP3K15): 100% | remaining activity at 0.1 µM (MELK; MELK): 77% | remaining activity at 0.1 µM (MERTK; MERTK): 100% | remaining activity at 0.1 µM (MKK7; MKK7): 98% | remaining activity at 0.1 µM (MLCK; MLCK): 100% | remaining activity at 0.1 µM (PAK2; PAK2): 97% | remaining activity at 0.1 µM (PFTAIRE2; PFTAIRE2): 100% | remaining activity at 0.1 µM (PRKCH; PRKCH): 100% | remaining activity at 0.1 µM (RIPK1; RIPK1): 26% | remaining activity at 0.1 µM ([2]; RPS6KA4(Kin.Dom.1-N-terminal)): 97% | remaining activity at 0.1 µM (SIK; SIK): 100% | remaining activity at 0.1 µM (STK16; STK16): 98% | remaining activity at 0.1 µM (TBK1; TBK1): 79% | remaining activity at 0.1 µM (TEC; TEC): 99% | remaining activity at 0.1 µM (TESK1; TESK1): 100% | remaining activity at 0.1 µM (ULK2; ULK2): 100% | remaining activity at 0.1 µM (WNK3; WNK3): 100%

CN(C[C@H](Cc1ccccc1)OP(=O)(O)O)C(=O)c1cncc(C#Cc2cnn(C(F)F)c2)c1 [Example 19, (S)-1-(5-((1-(difluoromethyl)-1H-pyrazol-4-yl)ethynyl)-N-methylnicotinamido)-3-phenylpropan-2-yl dihydrogen phosphate]
remaining activity at 0.1 µM [1]: 98% | remaining activity at 0.1 µM (ALK): 100% | remaining activity at 0.1 µM (AURKA): 100% | remaining activity at 0.1 µM (BLK): 96% | remaining activity at 0.1 µM (BRSK1): 99% | remaining activity at 0.1 µM (DRAK2): 100% | remaining activity at 0.1 µM (DYRK2): 97% | remaining activity at 0.1 µM (EGFR(E746-A750del)): 94% | remaining activity at 0.1 µM (EPHA6): 100% | remaining activity at 0.1 µM (FLT3): 100% | remaining activity at 0.1 µM (GRK7): 100% | remaining activity at 0.1 µM (IRAK4): 83% | remaining activity at 0.1 µM (MAP3K15): 97% | remaining activity at 0.1 µM (MELK): 83% | remaining activity at 0.1 µM (MERTK): 100% | remaining activity at 0.1 µM (MKK7): 96% | remaining activity at 0.1 µM (MLCK): 100% | remaining activity at 0.1 µM (PAK2): 92% | remaining activity at 0.1 µM (PFTAIRE2): 100% | remaining activity at 0.1 µM (PRKCH): 91% | remaining activity at 0.1 µM (RIPK1): 91% | remaining activity at 0.1 µM [2]: 100% | remaining activity at 0.1 µM (SIK): 100% | remaining activity at 0.1 µM (STK16): 92% | remaining activity at 0.1 µM (TBK1): 84% | remaining activity at 0.1 µM (TEC): 93% | remaining activity at 0.1 µM (TESK1): 100% | remaining activity at 0.1 µM (ULK2): 94% | remaining activity at 0.1 µM (WNK3): 100%
